# Measurements taken from the supplement of paper PMC10307832.
# Compound: CO[C@@H]1[C@H](N(C)C(=O)c2ccccc2)C[C@H]2O[C@]1(C)n1c3ccccc3c3c4c(c5c6ccccc6n2c5c31)C(=O)NC4 [Midostaurin] + CC(C)C[C@H](NC(=O)[C@H](Cc1ccccc1)NC(=O)c1cnccn1)B(O)O [Bortezomib] (partner 0.002 µM)
# Assay: relative viability (nuclei count vs DMSO), 5 days (fraction); higher = more cells survive
# Conditions: first compound 0.01 µM
# In short: (§1)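 The day after seeding in 1536-well plates, lung cancer cell lines were treated by pin tool with a single drug, or with a fixed anchor-drug dose together with five library-drug doses (not always all listed) in √10 steps. After 5 days, a combined fix-and-stain solution (final 0.05% Triton X-100, 1% formaldehyde, 1 ug/ml Hoechst) was added. Nuclei counted on 4× images gave relative viability as treated counts over vehicle counts, reported as the median of duplicate plates.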
row,Cell Line,relative viability
1,NCI-H727,0.906
2,NCI-H1650,0.214
3,EBC-1,0.756
4,NCI-H1703,0.427
5,NCI-H1993,1.03
6,SW 1573,0.966
7,NCI-H838,0.886
8,LCLC-103H,1.07
9,NCI-H520,0.657
10,NCI-H2126,1.07
11,EMC-BAC-2,1.08
12,NCI-H2085,0.968
13,Calu-6,0.934
14,HCC-366,1.02
15,NCI-H1666,0.852
16,NCI-H596,0.902
17,COR-L23,0.871
18,COR-L 105,0.823
19,IA-LM,0.85
20,NCI-H2009,0.882
21,NCI-H661,0.742
22,SK-LU-1,1.15
23,NCI-H1299,1.03
24,CAL-12T,1
25,NCI-H2228,1.21
26,NCI-H2023,0.974
27,NCI-H1563,0.888
28,ABC-1,0.316

# Same assay, conditions: first compound 0.03162 µM
row,Cell Line,relative viability
1,NCI-H727,0.81
2,NCI-H1650,0.227
3,EBC-1,0.485
4,NCI-H1703,0.256
5,NCI-H1993,1.15
6,SW 1573,0.988
7,NCI-H838,0.91
8,LCLC-103H,0.924
9,NCI-H520,0.492
10,NCI-H2126,1.08
11,EMC-BAC-2,0.998
12,NCI-H2085,0.963
13,Calu-6,0.973
14,HCC-366,1.04
15,NCI-H1666,0.894
16,NCI-H596,1.12
17,COR-L23,0.957
18,COR-L 105,0.804
19,NCI-H2009,0.981
20,NCI-H661,0.933
21,SK-LU-1,1.31
22,NCI-H1299,0.987
23,CAL-12T,0.922
24,NCI-H2228,1.19
25,NCI-H2023,0.961
26,NCI-H1563,0.937
27,ABC-1,0.289

# Same assay, conditions: first compound 0.1 µM
row,Cell Line,relative viability
1,NCI-H727,0.771
2,NCI-H1650,0.206
3,EBC-1,0.502
4,NCI-H1703,0.373
5,NCI-H1993,1.08
6,SW 1573,1.15
7,NCI-H838,0.638
8,LCLC-103H,1.02
9,NCI-H520,0.594
10,NCI-H2126,1.03
11,EMC-BAC-2,1.04
12,NCI-H2085,1.08
13,Calu-6,0.96
14,HCC-366,1.02
15,NCI-H1666,0.882
16,NCI-H596,1.1
17,COR-L23,0.936
18,COR-L 105,0.668
19,IA-LM,0.946
20,NCI-H2009,0.942
21,NCI-H661,0.667
22,SK-LU-1,1.36
23,NCI-H1299,0.95
24,CAL-12T,0.88
25,NCI-H2228,1
26,NCI-H2023,0.963
27,NCI-H1563,0.761
28,ABC-1,0.285

# Same assay, conditions: first compound 0.3162 µM
row,Cell Line,relative viability
1,NCI-H727,0.795
2,NCI-H1650,0.213
3,EBC-1,0.427
4,NCI-H1703,0.153
5,NCI-H1993,1.11
6,SW 1573,1.05
7,NCI-H838,0.448
8,LCLC-103H,1.1
9,NCI-H520,0.596
10,NCI-H2126,1.12
11,EMC-BAC-2,1.1
12,NCI-H2085,0.946
13,Calu-6,0.791
14,HCC-366,1.1
15,NCI-H1666,0.888
16,NCI-H596,1.07
17,COR-L23,0.81
18,COR-L 105,0.499
19,IA-LM,0.783
20,NCI-H2009,0.809
21,NCI-H661,0.72
22,SK-LU-1,1.19
23,NCI-H1299,1.01
24,CAL-12T,0.796
25,NCI-H2228,0.942
26,NCI-H2023,0.567
27,NCI-H1563,0.888
28,ABC-1,0.292

# Compound: COc1cc(-c2nn([C@H]3CC[C@H](N4CCN(C(C)=O)CC4)CC3)c3ncnc(N)c23)ccc1NC(=O)c1cc2ccccc2n1C + C[C@@H](Oc1cc(-c2cnn(C3CCNCC3)c2)cnc1N)c1c(Cl)ccc(F)c1Cl [Crizotinib] (partner 1 µM)
# Assay: as above
# Conditions: first compound 0.0128 µM
# In short: as §1
row,Cell Line,relative viability
1,NCI-H727,0.745
2,NCI-H1650,0.898
3,EBC-1,0.193
4,NCI-H1703,0.585
5,NCI-H1993,0.925
6,SW 1573,0.775
7,NCI-H838,0.809
8,LCLC-103H,1.17
9,NCI-H520,0.763
10,NCI-H2126,1.16
11,EMC-BAC-2,0.759
12,NCI-H2085,0.86
13,Calu-6,0.692
14,HCC-366,0.692
15,NCI-H1666,0.909
16,NCI-H596,0.943
17,LK-2,0.215

row,Cell Line,relative viability
1,SK-MES-1,1.02
2,COR-L23,0.59
3,COR-L 105,0.771
4,IA-LM,1.02
5,NCI-H2170,1.3
6,A549,0.854
7,NCI-H2009,1.09
8,NCI-H661,1.09
9,SK-LU-1,1
10,NCI-H1299,0.966
11,CAL-12T,0.621
12,NCI-H2228,0.426
13,NCI-H2023,0.587
14,NCI-H1563,0.625
15,NCI-H1944,1.12
16,ABC-1,1.01
17,NCI-H358,0.563

# Same assay, conditions: first compound 0.04048 µM
row,Cell Line,relative viability
1,NCI-H1650,1.07
2,EBC-1,0.198
